# Test results reported in patent publication US9205073B2, “Method for treating virus infection using derivative of aniline” (CHINA MEDICAL UNIVERSITY, priority 2014, dated 2015).
# Columns and labels:
# [1] = test system: JEV T1P1; assay: Apoptosis test (Annexin V/PI flow cytometry), JEV T1P1-infected BHK-21 cells; assay type: cell-based, Japanese encephalitis virus; settings: JEV T1P1 infection 36 hours; infected without compound 59.05%
# Experimental: (§1) BHK-21 cells and/or TE671cells were separately cultured in a 24-well culture plate, with an initial density of 3×10^4 per well, and with 1 ml of 2% FBS-containing MEM medium per well. The cells were incubated in an incubator (37° C., 5% CO2) overnight, and the medium was removed until the cells adhered to the plate. Then, fresh 2% FBS-containing MEM medium was simultaneously added into each well of the culture plate. The cells were infected with a JEV T1P1 virus strain, wherein the amount of JEV T1P1 used to infect BHK-21 cells was a multiplicity of infection (M.O.I.)=0.1, and the amount of JEV T1P1 used to infect TE671 cells was M.O.I.=0.05. Different concentrations of compound 1 (final concentrations were 0, 2.5, 25 and 125 μM, respectively) were added into different wells. The culture plate was placed into an incubator (37° C., 5% CO2) and maintained therein.
# BHK-21 cells and TE 671 cells were washed with PBS after being infected with the JEV T1P1 virus strain for 36 hours in the above experiment (1). Then, PBS was removed. Trypsin-EDTA (150 μl) was added into each well. The cells were incubated in an incubator at 37° C. for 3 minutes. Then, 1 ml MEM medium was added into each well to neutralize EDTA. […] The cells were maintained in the dark for 5 to 10 minutes, and then analyzed by flow cytomerty.
# [2] = test system: JEV T1P1; assay: Cytopathic effect test, JEV T1P1-infected BHK-21 cells; assay type: cell-based, Japanese encephalitis virus
# Experimental: as §1
# (§2) When BHK-21 cells were infected with JEV T1P1 virus strain for 48 and 72 hours as indicated in the above experiment (1), the cytopathic effect was observed by photography, while the cytopathic effect of TE671 cells was observed by photography when TE671 cells were infected with the JEV T1P1 virus strain for 36 and 48 hours. In addition, 200 μl culture medium supernatant of both cells was collected from each time point (i.e., 48 and 72 hours), thereby, providing the use for a viral plaque test in Example 4.
# [3] = test system: EV71; assay: Enterovirus infection-induced cytopathic effect / cell survival in RD cells with interferon; assay type: cell-based, enterovirus type 71; settings: for Cell survival rate: 36 hours
# Experimental: The RD cells were cultured in a 24-well culture plate at an initial density of 3×10^4 per well with 1 ml of 2% FBS-containing MEM medium per well. The cells were incubated in an incubator (37° C., 5% CO2) overnight. The medium was removed until the cells adhered to the plate. 1 ml of fresh 2% FBS-containing MEM medium was simultaneously added into each well. The RD cells were infected with an EV71 virus strain (M.O.I.=0.1). […] The RD cells were incubated in an incubator (37° C., 5% CO2) for 36 hours, and then their morphology was observed by photography. In addition, 200 μl of culture medium supernatant was collected from each well and stored at −80° C. for conducting the viral plaque test of Example 12.
# [4] = test system: JEV T1P1; assay: Viral plaque test, JEV T1P1 replication in BHK-21 cells; assay type: cell-based, Japanese encephalitis virus; settings: treated for 48 or 72 hours
# Experimental: as §1, with “therein. […]” for “therein.”
# BHK-21 cells were cultured in a 6-well culture plate at an initial density of 3×10^5 per well with 2 ml of 2% FBS-containing MEM medium per well. […] The cells were washed with clear water, and then the viral plaques were counted to calculate the virus titer.
# [5] = test system: JEV T1P1; assay: Cytopathic effect test, JEV T1P1-infected TE671 cells; assay type: cell-based, Japanese encephalitis virus
# Experimental: as §1, §2
smiles,measurement,setting,value
"CCOC(=O)C1=C(Nc2cc(C)cc(C)c2)OCC1=O [Compound 1, ethyl 2-(3′,5′-dimethylanilino)-4-oxo-4,5-dihydrofuran-3-carboxylate]",ratio of BHK-21 cells getting into late apoptosis,[1],reduced by compound 1 in a concentration dependent manner
same,JEV T1P1-induced cytopathic effect,"[2]; infected 48 hours, M.O.I.=0.1, compound 25 μM simultaneously",significantly reduced
same,JEV T1P1-induced cytopathic effect,"[2]; infected 72 hours, M.O.I.=0.1, compound 125 μM simultaneously",effectively inhibited
same,Cell survival rate,"[3]; EV71 M.O.I.=0.1, IFN-β 100 unit/ml + Compound 1 2.5 μM",46.9%
same,Cell survival rate,"[3]; EV71 M.O.I.=0.1, IFN-β 100 unit/ml + Compound 1 25 μM",55.86%
same,Cell survival rate,"[3]; EV71 M.O.I.=0.1, IFN-β 100 unit/ml + Compound 1 125 μM",83.3%
same,EV71-induced cytopathic effect,"[3]; infected 36 hours, combination of compound 1 and 100 units/ml of IFN-β",effectively inhibited
same,Cell survival rate,"[3]; no EV71, no IFN-β, Compound 1 125 μM",86.85%
same,replication of JEV T1P1 (virus titer),[4],significantly decreased
same,JEV T1P1-induced cytopathic effect,"[5]; infected 36 hours, M.O.I.=0.05, compound 25 μM simultaneously",inhibited
same,JEV T1P1-induced cytopathic effect,"[5]; infected 48 hours, M.O.I.=0.05, compound 25 μM",inhibited
